Experimental findings from ChEMBL document CHEMBL1131896, “Probing the radical mechanism of galactose oxidase using an ultrafast radical probe” (Bioorg Med Chem Lett, 1999) are described below.

The target in test [1] is Galactose oxidase (Fusarium austroamericanum). Description: Binding constant against Galactose oxidase (GOase).
Test [2] relates to Galactose oxidase (Fusarium austroamericanum). Description: Inactivation rate constant against Galactose oxidase (GOase).

What is called Ki is the equilibrium dissociation constant of an inhibitor or competing ligand from its target. High values mean weaker binding, low ones tighter binding. In test [1], `OC[C@H]1C[C@@H]1c1ccccc1` [listing 1 of 2 here] returned an inhibitory constant (Ki) of 5.6 mM.
In test [2], `OC[C@H]1C[C@@H]1c1ccccc1` [listing 2 of 2 here] had a K inact of 0.0026 s⁻¹.
In test [1], `[2H]C([2H])(O)[C@H]1C[C@@H]1c1ccccc1` (relative stereo) had an inhibition constant (Ki) of 5.1 mM.
`OC[C@H]1C[C@@H]1c1ccccc1` (relative stereo): the K inact in test [2] (tested as the 2H-labelled form) was determined as 0.00082 s⁻¹.
